Usually IC50 stands for the concentration that inhibits the measured activity by half. By inhibition is commonly meant the share of the control response that was lost under treatment.

The subject of series [1] is LPS-induced TNFα production. Description: LPS antagonism assay: inhibition of LPS-induced TNFα production in THP-1 macrophages (ELISA). The series is classed as cell-based, human. The settings on record: for LPS antagonistic activity: increasing concentrations, 10 ng/mL LPS 6 h; for inhibitory activity against LPS-induced TNFα production: concentration range of 0.1 nM to 10 μM. The method, then: Synthetic compounds in solid form were dissolved in tetrahydrofuran (THF), aliquotted in small volumes, vacuum-centrifuged for 1 h and stored at −80° C. as dry compounds. For cellular treatment, an aliquot was dissolved in an appropriate volume of dimethylsulfoxide (DMSO) to give a concentrated working stock solution. This stock solution was further diluted in DMSO to give the desired concentration range. The final concentration of DMSO in the cell treatments was always maintained at 0.6%. Concentrations of Fmoc-containing compounds were verified by absorbance using an extinction coefficient of 7800 M^−1 cm^−1 at 301 nm.
THP-1 cells were obtained from ATCC (Manassas, Va.) and maintained in RPMI-1640 culture medium (HyClone, Logan, Utah) containing 2 mM L-glutamine, 25 mM HEPES, 1.5 g/L sodium bicarbonate, 10% fetal bovine serum (FBS) (HyClone), 50 units/mL penicillin, 50 μg/mL streptomycin (HyClone), and 50 μM β-mercaptoethanol at 37° C. in 5% CO2. For cellular assay, THP-1 monocytes were centrifuged and resuspended in a fresh growth medium to a cell density of 5×10^5 cells/mL Cells were then seeded in a 48-well plate and differentiated into adherent macrophages by treatment with 10 ng/mL phorbol 12-myristate 13-acetate (PMA) (Sigma) for 24 h at 37° C. in 5% CO2. The non-adherent cells were removed and the adherent cells were washed and replenished with reduced FBS growth medium. For the two wells set aside for calculating percent differentiation, the cells were washed with PBS (Hyclone) prior to removal by 0.25% trypsin-EDTA. Cells in a separate well were removed with 0.25% trypsin and counted under the microscope using a hemocytometer to determine the number of adherent macrophages. For the remaining wells, the cells were pre-incubated with LPS antagonist compounds at different concentrations for 30 min followed by addition of 10 ng/mL ultrapure LPS from E. coli K12 (InvivoGen, San Diego, Calif.) for 6 h at 37° C. in 5% CO2. 0.6% DMSO was used as a control. The cell medium was collected and stored at −20° C. until analyzed by ELISA for secreted TNFα production.
On the technique in general: In an ELISA, binding on a coated surface is turned into a signal by an enzyme label.

The subject of series [2] is THP-1 macrophages. In words: Cell viability (toxicity) by XTT reduction assay in THP-1 macrophages. The class given is cell-based, human. The settings on record: for toxicity (in words): THP-1 macrophages; for concentration at which toxic to the cells / cell viability compromised: XTT reduction assay. As to the method:
Cell viability was monitored using an XTT [2,3-bis(2-methoxy-4-nitro-5-sulfophenyl)-2H-tetrazolium-5-carboxanilide] assay. Macrophage metabolic activity was assessed by probing mitochondrial reduction of XTT (Sigma) which is a measure of viability (or toxicity) in response to the synthetic antagonists. Following 6 h treatment with antagonist compounds and LPS, the macrophages were washed with PBS (Hyclone) and incubated with XTT (0.33 mg/mL) and phenazine methosulfate (PMS) (8.3 μM) (Acros, Morris Plains, N.J.) to a final concentration of 0.33 mg/mL and 8.3 μM respectively for 2 h at 37° C. in 5% CO2. The cellular toxicity was then assessed in a platereader using absorbance of reduced XTT at 467 nm.
(Tetrazolium assays rely on reduction of a dye to a coloured formazan, in cell work by metabolically active cells.)

The test system of series [3] is TNFα production. In words: Agonist activity: secreted TNFα in THP-1 macrophages in the absence of LPS. The class given is cell-based, human. Particulars: for concentration range with agonist activity: FIG. 4 and FIG. 6; for agonist activity in the absence of LPS: tested in the absence of LPS.
The test system of series [4] is LPS. Particulars: Boons et al.; Shiozaki et al.; Peri et al.; cited from earlier work.
Where [5] appears, read: human macrophage cells (THP-1), 10 ng/mL LPS for 6 h, read-out: TNFα inhibition (IC50).
Where [6] appears, read: concentration at which toxicity is seen, human macrophage cells, XTT reduction.
The mark [7] stands for this setting: concentration range showing agonist activity, human macrophage cells.
[8] abbreviates: human macrophage cells (THP-1), 10 ng/mL LPS for 6 h.

Each structure is given as a SMILES string. Like-named read-outs stand apart in the source and are kept apart here.

As for `CCCCCCCCCCCCCCO[C@H]1[C@@H](OC)O[C@H](C[N+](C)(C)C2CCCC2)[C@@H](O)[C@@H]1OCCCCCCCCCCCCCC` [Compound 4, reference compound], the inhibition range in series [1] (LPS-induced TNFα production) lay within 3 to 10 µM. For the same compound, the IC50 in series [1] (setting [5]) is 6000 nM. For the same compound, in series [2] (XTT reduction), the “toxicity (in words)” value is recorded as “toxic at high concentrations”. For the same compound, the Toxicity in series [2] (setting [6]) was more than 30 µM. In addition, the “concentration range with agonist activity” value in series [3] is more than 10 µM. Moreover, the Agonist activity in series [3] (setting [7]) was 30 to 100 µM. Further, in series [4], the “antagonistic activity against LPS as reported in the literature” value is on record as “provide antagonistic activity”.

For `CO[C@H]1OC(COC(=O)CCC(=O)OC[C@H](NC(=O)OCC2c3ccccc3-c3ccccc32)C(=O)OC(C)(C)C)[C@@H](O)[C@H](OCc2ccccc2)C1OCc1ccccc1` (stereo partly drawn) [Compound 10, Methyl 2,3-di-O-benzyl-6-O-(4-((S)-2-(9-fluorenylmethoxyearbonyl)amino-3-(tert-butoxy)-3-oxopropyl)oxy-4-oxobutanoyl)-α-D-glycopyranoside], the “LPS antagonistic activity” value in series [1] (THP-1 macrophages) is given as “do not display LPS antagonistic activity”. In addition, the “inhibitory activity against LPS-induced TNFα production” value (shortened to “inhibitory activity”) in series [1] is “no inhibitory activity”. Also, the “TNFα inhibition (IC50)” value in series [1] (setting [8]) is “None observed”. Also, the Toxicity result in series [2] (setting [6]) is “None observed”. Besides, the Agonist activity result in series [3] (setting [7]) is listed as “None observed”. In series [3], the “agonist activity in the absence of LPS” value is on record as “no agonist activity”.

In the case of `CO[C@H]1OC(COC(=O)CCC(=O)OC[C@H](NC(=O)OCC2c3ccccc3-c3ccccc32)C(=O)O)[C@@H](O)[C@H](OCc2ccccc2)C1OCc1ccccc1` (stereo partly drawn) [Compound 11, Methyl 2,3-di-O-benzyl-6-O-(4-((S)-2-(9-fluorenylmethoxyearbonyl)amino-2-carboxyethyl)oxy-4-oxobutanoyl)-α-D-glycopyranoside], in series [1] (THP-1 macrophages), the “concentrations at which LPS-induced TNFα production is significantly inhibited” value is listed as “greater than 10 μM” and the “LPS antagonistic activity” value was “displays LPS antagonistic activity”. Besides, the half-maximal inhibitory concentration (IC50) in series [1] (setting [5]) was determined as 46000 nM. In addition, the “toxicity (in words)” value in series [2] (XTT reduction) was “cell toxicity”. Besides, in series [2], the “concentration at which toxic to the cells / cell viability compromised” value lay within 30 to 100 µM. This compound showed a Toxicity in series [2] (setting [6]) of more than 10 µM. The Agonist activity result in series [3] (setting [7]) is reported as “None observed”.

On to `CO[C@H]1O[C@H](COC(=O)CCC(=O)OC[C@H](N)C(=O)OC(C)(C)C)[C@@H](O)[C@H](OCc2ccccc2)[C@H]1OCc1ccccc1` [Compound 12, Methyl 2,3-di-O-benzyl-6-O-(4-((S)-2-amino-3-(tert-butoxy)-3-oxopropyl)oxy-4-oxobutanoyl)-α-D-glycopyranoside], for which, in series [1] (THP-1 macrophages), the “LPS antagonistic activity” value is recorded as “do not display LPS antagonistic activity”. For the same compound, the “inhibitory activity” value in series [1] is reported as “no inhibitory activity”. Further, the “TNFα inhibition (IC50)” value in series [1] (setting [8]) is reported as “None observed”. Further, the Toxicity entry in series [2] (setting [6]) is reported as “None observed”. Moreover, in series [3] (setting [7]), the Agonist activity result is “None observed”. The “agonist activity in the absence of LPS” value in series [3] is given as “no agonist activity”.

With `CO[C@H]1O[C@H](COC(=O)CCC(=O)OC[C@H](N)C(=O)O)[C@@H](O)[C@H](OCc2ccccc2)[C@H]1OCc1ccccc1` [Compound 13, Methyl 2,3-di-O-benzyl-6-O-(4-((S)-2-amino-2-carboxyethyl)oxy-4-oxobutanoyl)-α-D-glycopyranoside], the “LPS antagonistic activity” value in series [1] (THP-1 macrophages) is recorded as “do not display LPS antagonistic activity”. In series [1], the “inhibitory activity” value was “no inhibitory activity”. For the same compound, the “TNFα inhibition (IC50)” value in series [1] (setting [8]) is listed as “None observed”. Also, the Toxicity result in series [2] (setting [6]) is recorded as “None observed”. Also, the Agonist activity entry in series [3] (setting [7]) is reported as “None observed”. For the same compound, the “agonist activity in the absence of LPS” value in series [3] is “no agonist activity”.

Regarding `CCCCCCCCCCCCCC(=O)O[C@H]1[C@@H](OC)O[C@H](COC(=O)CCC(=O)OC[C@H](NC(=O)OCC2c3ccccc3-c3ccccc32)C(=O)O)[C@@H](O)[C@@H]1OC(=O)CCCCCCCCCCCCC` [Compound 19, Methyl 6-O-(4-((S)-2-(9-fluorenylmethoxyearbonyl)amino-2-carboxyethyl)oxy-4-oxobutanoyl)-2,3-di-O-tetradecanoyl-α-D-glucopyranoside], the LPS response blocked in series [1] (5 μM compound) was 80%. In series [1] (THP-1 macrophages), the “concentration at which inhibition of LPS-induced TNFα begins” value was not below 550 nM and the “LPS antagonistic activity” value is listed as “highly potent LPS antagonistic activity”. Besides, the IC50 in series [1] (setting [5]) amounted to 3000 nM. Further, in series [2], the “concentration at which toxic to the cells / cell viability compromised” value was not below 10 µM. For the same compound, the Toxicity entry in series [2] (at 5 μM compound) is reported as “no observable toxicity”. The Toxicity in series [2] (setting [6]) was more than 10 µM. In series [3], the “concentration range with agonist activity” value was 10 to 30 µM. The Agonist activity in series [3] (setting [7]) was in the range of 10 to 30 µM.

Take `CCCCCCCCCCCCCCO[C@H]1[C@@H](OC)O[C@H](COC(=O)CCC(=O)OC[C@H](NC(=O)OCC2c3ccccc3-c3ccccc32)C(=O)O)[C@@H](O)[C@@H]1OCCCCCCCCCCCCCC` [Compound 24, Methyl 6-O-(4-((S)-2-(9-fluorenylmethoxycarbonyl)amino-2-carboxyethyl)oxy-4-oxobutanoyl)-2,3-di-O-tetradecanyl-α-D-glucopyranoside]: testing at 1 µM in series [1] (Homo sapiens, THP-1, 1 μM compound) gave an inhibition of 70%. In addition, the inhibition at 40 µM in series [1] (Homo sapiens, THP-1, 40 μM compound, read-out: overall inhibition of LPS-induced TNFα production) is 90%. The IC50 in series [1] (Macrophage, LPS-induced TNFα production in human macrophages, FIG. 5, read-out: IC50, curve fitting of the inhibition data) is 470 nM; in series [1] (setting [5]), 500 nM. Further, the “LPS antagonistic activity” value in series [1] (THP-1 macrophages) is given as “significant LPS antagonistic activity”. The “toxicity (in words)” value in series [2] (XTT reduction) was “without toxicity”. Moreover, the Toxicity entry in series [2] (setting [6]) was “None observed”; in series [2] (tested 0.2 to 40 μM range), “no toxicity”. The Agonist activity result in series [3] (setting [7]) is listed as “None observed”; in series [3] (tested 0.2 to 40 μM range) it was “no toxicity or agonist activity”.

These data come from patent US9120838B2, “Saccharide conjugates” (Curators of the University of Missouri, priority 2011, dated 2015).
